{"source": "paper PMC7029560", "about": "“Functional characterization of acyl-CoA binding protein in Neospora caninum” (Parasites & Vectors, 2020)", "biological_target": "T1, NcACBP (rNcACBP-GST) (Neospora caninum, UniProt F0VR91)", "T1 construct": "gene NCLIV_066640", "T1 sequence (F0VR91 1-95)": "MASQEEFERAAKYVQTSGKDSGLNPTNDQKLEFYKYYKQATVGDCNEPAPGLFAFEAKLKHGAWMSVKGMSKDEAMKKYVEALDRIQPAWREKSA", "assay": "fluorescence binding assay (SpectraMax M5, […] nm)", "details": "1 uM GST-fusion protein, 0-0.3 uM ligand, PBS, room temperature, 5 min; labelled compound"}
{"substance": "NBD-C16:0-CoA", "values": [{"measurement": "Kd", "value": 11.7, "unit": "nM"}]}
